Assay results published in BindingDB's records for doi:10.7270/Q2DR2SWV (Vanderbilt Screening Center For Gpcrs, Ion Channels and …, 2010).

Each compound was assayed against Metabotropic glutamate receptor 4 [Q124R] (Rattus norvegicus, UniProt P31423, Q124R) (assay: PubChem AID 2185).
Metabotropic glutamate receptor 4 [Q124R], sequence (P31423 33-912 Q124R limits assumed): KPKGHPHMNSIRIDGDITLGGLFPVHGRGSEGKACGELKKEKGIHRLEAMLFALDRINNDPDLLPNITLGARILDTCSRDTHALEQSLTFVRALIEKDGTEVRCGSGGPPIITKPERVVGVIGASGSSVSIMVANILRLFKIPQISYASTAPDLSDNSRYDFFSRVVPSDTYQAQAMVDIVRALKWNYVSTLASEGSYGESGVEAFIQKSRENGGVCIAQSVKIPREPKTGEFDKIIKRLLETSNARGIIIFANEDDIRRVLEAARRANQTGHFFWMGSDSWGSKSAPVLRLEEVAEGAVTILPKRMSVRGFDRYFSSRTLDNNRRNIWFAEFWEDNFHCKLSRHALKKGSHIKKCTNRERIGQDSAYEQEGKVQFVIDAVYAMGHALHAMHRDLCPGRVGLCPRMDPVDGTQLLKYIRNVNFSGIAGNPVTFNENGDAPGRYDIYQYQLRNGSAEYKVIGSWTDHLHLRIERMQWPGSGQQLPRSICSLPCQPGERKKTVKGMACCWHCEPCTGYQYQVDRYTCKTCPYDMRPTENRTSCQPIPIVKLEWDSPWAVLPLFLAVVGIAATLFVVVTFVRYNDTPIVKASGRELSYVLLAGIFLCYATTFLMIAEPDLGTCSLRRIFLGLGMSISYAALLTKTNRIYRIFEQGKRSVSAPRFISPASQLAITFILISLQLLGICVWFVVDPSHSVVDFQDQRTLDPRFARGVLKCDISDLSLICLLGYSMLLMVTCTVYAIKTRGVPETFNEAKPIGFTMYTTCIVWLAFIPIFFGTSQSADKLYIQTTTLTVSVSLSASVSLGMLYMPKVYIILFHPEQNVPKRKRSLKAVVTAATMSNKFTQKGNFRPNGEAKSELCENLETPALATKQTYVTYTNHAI

| SMILES | EC50 [µM] |
| --- | --- |
| COc1cc(NC(=O)c2ccccn2)ccc1F | 0.374 |
| COc1ccc(NC(=O)c2ccccn2)cc1Cl | 0.738 |
| COc1ccc(NC(=O)c2ccccn2)cc1OC | 2.35 |
| COc1cc(NC(=O)c2ccccn2)ccc1C | 0.208 |
| O=C(Nc1ccc(F)c(C(F)(F)F)c1)c1ccccn1 | 0.999 |
| O=C(Nc1ccc(Cl)c(C(F)(F)F)c1)c1ccccn1 | 1.71 |
| CC1(C)c2c1c(O)n(-c1ccc(NC(=O)c3ccccn3)cc1Cl)c2O [N-[3-chloranyl-4-[(1S,5R)-6,6-dimethyl-2,4-bis(oxidanylidene)-3-azabicyclo[3.1.0]hexan-3-yl]phenyl]pyridine-2-carboxamide] | 0.69 |
| O=C(Nc1ccc(-n2c(O)cc(-c3ccccc3)c2O)c(Cl)c1)c1ccccn1 [N-[3-chloro-4-(2,5-dioxo-3-phenyl-1-pyrrolidinyl)phenyl]-2-pyridinecarboxamide] | 0.49 |
| O=C(Nc1ccc(-n2c(O)ccc2O)c(Cl)c1)c1ccccn1 [N-[3-chloro-4-(2,5-dioxopyrrolidin-1-yl)phenyl]pyridine-2-carboxamide] | 6.89 |
| O=C(Nc1ccc(-n2c(O)c3c(c2O)CCCC3)c(Cl)c1)c1ccccn1 [VU0366515-1] | 0.65 |
| O=C(Nc1ccc(-n2c(O)c3c(c2O)[C@H]2CC[C@@H]3O2)c(Cl)c1)c1ccccn1 [VU0405235-1] | 2.29 |
